Laboratory results from patent publication US7205382B2, “Peptides, the production and use thereof for binding immunoglobulins” (Fresenius Medical Care Affina GmbH, priority 2000, dated 2007).
Square brackets hold non-standard residues; d marks the D form. Ends that are not written are not given here. cellulose = not defined here; βAla = NCCC(=O)O

What was measured:
[1] = tested on: human IgG-Fc; assay: Cellulose-immobilized 13-mer peptide variants incubated with human IgG-Fc, anti-human IgG-AP detection; format: binding; set-up: key: No binding of immunoglobulin for the defined peptide variant, detection negative: 0; Binding of immunoglobulin for the defined peptide variant, detection positive: +; conditions: IgG-Fc 1 μg/ml in blocking buffer, 3 h room temperature
Procedure, shortened: (§1)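 SPOT-type 13-mer peptides on cellulose with a (βA)(βA) spacer, blocked in 5% saccharose/4% BSA in T-TBS pH 8.0. Incubated 3 h at RT with human IgG-Fc (1 μg/ml) or human serum/plasma (1:10,000), or with blocking buffer alone as the albumin specificity control. Bound IgG detected with AP-anti-human IgG (1.2 μg/ml) and NBT/BCIP colorimetric development at pH 9.5.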

[2] = tested on: serum albumin; assay: Cellulose-immobilized 13-mer peptide variants incubated with serum albumin (negative control), anti-human IgG-AP detection; format: binding; set-up: key: No binding of immunoglobulin for the defined peptide variant, detection negative: 0; Binding of immunoglobulin for the defined peptide variant, detection positive: +; conditions: blocking buffer without addition, 3 h room temperature
Procedure, shortened: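 Read-out was colorimetric NBT/BCIP staining (developing buffer pH 9.5) after alkaline phosphatase-conjugated anti-human IgG at 1.2 μg/ml. Before this, the immobilized peptides had been incubated 3 h at room temperature with 1 μg/ml IgG-Fc, 1:10,000 diluted serum, or albumin-containing blocking buffer without addition.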

[3] = tested on: immunoglobulins in human plasma; assay: Cellulose-immobilized 13-mer peptide variants incubated with human plasma, anti-human IgG-AP detection; format: binding; set-up: key: No binding of immunoglobulin for the defined peptide variant, detection negative: 0; Binding of immunoglobulin for the defined peptide variant, detection positive: +; conditions: human plasma as sample, diluted 1:10,000 in blocking buffer, 3 h room temperature
Procedure, shortened: as §1

[4] = tested on: immunoglobulins from human plasma; assay: Affinity chromatography of human plasma on peptide-sepharose matrices, binding capacity for immunoglobulins; conditions: 6 volume fractions per column volume, 80 cm/h, elution pH 2.8
Experimental: For immobilization to a solid phase, the peptides were dissolved in coupling buffer (30% (v/v) acetonitrile, 0.5 M NaCl, 0.1 M NaHCO3, pH 8.3) to a concentration of 1 mg/ml and mixed with washed and CNBr-preactivated sepharose 4B at a volume ratio of 10:1. After completion of the coupling reaction, the peptide. matrices were washed with coupling buffer, and the excess CNBr groups were inactivated by incubation of the matrix in Tris buffer (100 mM Tris-HCl, 500 mM NaCl, pH 8.0).
The peptide loadings of the matrices were determined by photometry (A280 nm) by establishing the difference between the peptide mass employed before coupling and the non-immobilized peptide mass after coupling.
The peptide matrices were tested by means of affinity chromatography for their binding capacity and binding specificity for immunoglobulins with human plasma as a sample. Thus, 6 volume fractions of human plasma as the sample was passed through 1 column volume fraction of peptide matrix at a linear flow rate of 80 cm/h.
Prior to sample application, the affinity-chromatographic column was equilibrated with PBS, pH 7.2. […]
The determination of the concentration of the eluted protein was effected by photometric measurement of the adsorption at 280 nm. The immunoglobulin concentration was calculated therefrom with ε280 nm=1.35 cm^2/mg for IgG.

Substance	Result for incubation with human IgG-Fc (immunoglobulin binding detection) [1]	Result for incubation with serum albumin (immunoglobulin binding detection) [2]	Result for incubation with human plasma (immunoglobulin binding detection) [3]	Rel. capacity: mg of bound protein/mg of peptide matrix loading [4] [mg/mg]	Volume capacity: mg of bound protein/ml of peptide matrix [4] [mg/mL]
12A: cellulose-bound 13-mer variant DCAWHLGELVWAT-(βA)(βA) (DCAWHLGELVWAT-{βAla-βAla-cellulose}; not fully specified; printed as DCAWHLGELVWAT-(βA)(βA); reading uncertain)	0	0	0		
12D: cellulose-bound 13-mer variant DCAWHLGELVWDT-(βA)(βA) (DCAWHLGELVWDT-{βAla-βAla-cellulose}; not fully specified; printed as DCAWHLGELVWDT-(βA)(βA); reading uncertain)	0	0	0		
12E: cellulose-bound 13-mer variant DCAWHLGELVWET-(βA)(βA) (DCAWHLGELVWET-{βAla-βAla-cellulose}; not fully specified; printed as DCAWHLGELVWET-(βA)(βA); reading uncertain)	0	0	0		
12F: cellulose-bound 13-mer variant DCAWHLGELVWFT-(βA)(βA) (DCAWHLGELVWFT-{βAla-βAla-cellulose}; not fully specified; printed as DCAWHLGELVWFT-(βA)(βA); reading uncertain)	0	0	0		
12G: cellulose-bound 13-mer variant DCAWHLGELVWGT-(βA)(βA) (DCAWHLGELVWGT-{βAla-βAla-cellulose}; not fully specified; printed as DCAWHLGELVWGT-(βA)(βA); reading uncertain)	0	0	0		
12H: cellulose-bound 13-mer variant DCAWHLGELVWHT-(βA)(βA) (DCAWHLGELVWHT-{βAla-βAla-cellulose}; not fully specified; printed as DCAWHLGELVWHT-(βA)(βA); reading uncertain)	0	0	0		
12I: cellulose-bound 13-mer variant DCAWHLGELVWIT-(βA)(βA) (DCAWHLGELVWIT-{βAla-βAla-cellulose}; not fully specified; printed as DCAWHLGELVWIT-(βA)(βA); reading uncertain)	0	0	0		
12K: cellulose-bound 13-mer variant DCAWHLGELVWKT-(βA)(βA) (DCAWHLGELVWKT-{βAla-βAla-cellulose}; not fully specified; printed as DCAWHLGELVWKT-(βA)(βA); reading uncertain)	0	0	0		
acetyl-D-S-A-W-H-L-G-E-L-V-W-C-T-((βA)(βA)K) (Ac-DSAWHLGELVWCT[βAla][βAla]K; also: immobilized on sepharose 4B) [Peptide matrix A1]				0.53	4.70
